Reference: ChEMBL document CHEMBL1201862, “PubChem BioAssay data set” (2004)
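Assay format: 96-well plates, 48-hour exposure. GI50 = concentration required for 50% inhibition of growth.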 Active and inactive are the calls of the source. No stated cut-off is given here; in the data, active = GI50 up to about 1.1 µM and inactive = higher.

Legend:
Assay in all cases: DTP human tumour cell line panel, 48 h
[1] = tested on: 786-0
[2] = tested on: A549
[3] = tested on: ACHN
[4] = tested on: HOP-92
[5] = tested on: HT-29
[6] = tested on: MDA-MB-231
[7] = tested on: MDA-N
[8] = tested on: Malme-3M
[9] = tested on: NCI-H23
[10] = tested on: NCI/ADR-RES
[11] = tested on: SF-295
[12] = tested on: SN12C
[13] = tested on: SNB-19
[14] = tested on: SNB-75
[15] = tested on: TK-10
[16] = tested on: UACC-257
[17] = tested on: UO-31
[18] = tested on: UACC-62
[19] = tested on: OVCAR-4

Measured: GI50

O=C(NCCN1CCOCC1)c1cn2c(ccc3sc4ccccc4c(=O)c32)n1
inactive: [1] 13.6 µM | [2] 4.62 µM | [3] 5.36 µM | [4] 12.8 µM | [5] 6.56 µM | [6] 5.35 µM | [7] 28.3 µM | [8] 22.7 µM | [9] 20.7 µM | [10] 20.6 µM | [11] 11 µM | [12] 13.1 µM | [13] 87.5 µM | [14] 24.8 µM | [15] > 100 µM | [16] 34.6 µM | [17] > 100 µM

Nc1nc(S)nc2snnc12
inactive: [1] > 100 µM | [2] > 100 µM | [3] > 100 µM | [4] > 100 µM | [5] > 100 µM | [6] > 100 µM | [7] > 100 µM | [8] > 100 µM | [9] > 100 µM | [10] > 100 µM | [11] > 100 µM | [12] > 100 µM | [13] > 100 µM | [14] > 100 µM | [15] > 100 µM | [16] > 100 µM | [18] > 100 µM | [17] > 100 µM

O=C(CCc1cccc(O)c1)NCCc1cccc(OCc2ccccc2)c1
inactive: [1] 25.4 µM | [2] 28.1 µM | [3] 25.4 µM | [4] 14.9 µM | [5] 16.6 µM | [6] 18.5 µM | [7] 18.6 µM | [8] 17.6 µM | [9] 18.9 µM | [10] 18.3 µM | [19] 20.1 µM | [11] 16.7 µM | [12] 18.8 µM | [13] 22.8 µM | [15] 24.1 µM | [16] 16.3 µM | [18] 14.3 µM | [17] 8.93 µM

O=C(O[C@H]1[C@@H](O)[C@H](n2cnc3c(Cl)ncnc32)O[C@@H]1COC(c1ccccc1)(c1ccccc1)c1ccccc1)c1ccccc1
inactive: [1] 14.9 µM | [2] 56.1 µM | [3] 15.7 µM | [4] 15.8 µM | [5] 18.5 µM | [6] 21.2 µM | [7] 35.9 µM | [9] 20.4 µM | [10] 34.8 µM | [19] 30.3 µM | [11] 19.8 µM | [12] 11.9 µM | [13] 39.3 µM | [14] 45.4 µM | [15] 45.2 µM | [16] 14.7 µM | [18] 39.5 µM | [17] 1.27 µM

O=Cc1ccc2ccocc1-2
inactive: [1] > 100 µM | [2] > 100 µM | [3] > 100 µM | [4] > 100 µM | [5] > 100 µM | [6] > 100 µM | [7] > 100 µM | [9] > 100 µM | [10] > 100 µM | [19] > 100 µM | [11] > 100 µM | [12] > 100 µM | [13] > 100 µM | [15] > 100 µM | [16] > 100 µM | [18] > 100 µM | [17] > 100 µM

CCOC(=O)N1CCC(=C2c3ccc(Cl)cc3CCc3cccnc32)CC1 [LORATADINE]
inactive: [1] 15.2 µM | [2] 13.4 µM | [3] 4.15 µM | [4] 10 µM | [5] 3.18 µM | [6] 20 µM | [7] 4.55 µM | [8] 5.94 µM | [9] 15.8 µM | [10] 6.56 µM | [19] 3.69 µM | [12] 10.2 µM | [15] 13.2 µM | [16] 15 µM | [18] 4.73 µM | [17] 1.64 µM
